Measurements as given in patent publication US4087432A, “1H-imidazo(4,5-b)pyridine compounds” (Eli Lilly and Company, priority 1975, dated 1978).

Key:
Pigweed [1] = experiment: Postemergent injury rating, pigweed; assay type: in vivo, rough pigweed; set-up: key: injury rating scale, 4 = death
Procedure: (§1) Various of the compounds to be employed as active agent in accordance with the present invention were evaluated for preemergent application to various species of plants. In this evaluation, a soil was prepared consisting of one part masonry sand and one part shredded top soil blended together in a cement mixer. One gallon of this soil was placed in a 25 × 35 cm. galvanized flat and was patted down with a bench brush until level. A three-row marker was used to make 21/2 cm. deep furrows in approximately two-fifths of the flat. Crop seeds consisting of four kernels of corn, five cotton seeds and five soybean seeds were placed in these furrows. A four-row template was then placed on the remaining soil and the indicated approximate numbers of each of the following seeds were planted, one species to each section: foxtail (millet), 80-100 seeds; velvetleaf (40-50 seeds); rough pigweed (150-250 seeds); and large crabgrass (100-150 seeds).
(§2) Sufficient soil was added to cover the entire flat. Thus, the weed seeds were covered to a depth of about 6 mm. and the crop seeds were covered to a depth of about 3 cm.
(§3) In assaying the effect of the composition as preemergent herbicides, a flat prepared as above, taken either on the day of planting or on the next day, was placed in a chamber equipped with a turntable and an air exhaust. The herbicidal composition, either a spray-type emulsion or a wettable powder, was applied to the flat with a modified DeVilbiss atomizer hooked to an air source. Twelve and one-half milliliters of the composition under test were applied to each flat either on the day of planting or the succeeding day. Injury ratings and observations as to type of injury were made eleven to twelve days after treatment. The injury rating scale used was as follows:
(§4) 4--death When more than one determination was carried out at a given rate, an average value was calculated for the injury rating. Each compound evaluated was formulated as a spray by one of the following procedures. In one method the particular compound was wetted by grinding in a mortar with one part of polyoxyethylene sorbitan monolaurate. Five hundred parts of water were added slowly to the resultant creamy paste to give an aqueous dispersion with a surfactant concentration of 0.2 percent. This dispersion was entirely satisfactory for spray application. In a second procedure the compound was dissolved in one volume of acetone, and the acetone solution was diluted with nineteen volumes of water containing 0.1 percent of polyoxyethylene sorbitan monolaurate.
(§5) Representative compounds of the present invention were evaluated for postemergent application to plants including corn and several weed species. The evaluation was carried out in accordance with the procedures of Examples 49-52 except that the test solutions were applied about 9-12 days after the preparation and seeding of the flats.

Crabgrass [2] = experiment: Postemergent injury rating, crabgrass; assay type: in vivo, large crabgrass; set-up: key: injury rating scale, 4 = death
Procedure: as §1, §2, §3, §4, §5

Cotton [3] = experiment: Preemergent injury rating, cotton; assay type: in vivo; set-up: key: injury rating scale on which 4 = death
Procedure: as §1, §2, §3, §4
(§6) In the following table setting forth the results of the evaluation, column 1 gives the name of the compound under test; column 2, the rate in pounds per acre at which the compound was applied to the test flat; and the remaining columns, the injury to the particular plant seeds or seedlings as measured by the foregoing scale.

Soybean [4] = experiment: Postemergent injury rating, soybean; assay type: in vivo
Procedure: as §1, §2, §3, §4, §5

Pigweed [5] = experiment: Preemergent injury rating, pigweed; assay type: in vivo, rough pigweed; set-up: key: injury rating scale on which 4 = death; details: 2 lbs/acre
Procedure: as §1, §2, §3, §4, §6

Foxtail [6] = experiment: Postemergent injury rating, foxtail; assay type: in vivo, foxtail (millet); set-up: key: injury rating scale, 4 = death
Procedure: as §1, §2, §3, §4, §5

Crabgrass [7] = experiment: Preemergent injury rating, crabgrass; assay type: in vivo, large crabgrass; set-up: key: injury rating scale on which 4 = death
Procedure: as §1, §2, §3, §4, §6

Velvet Leaf [8] = experiment: Preemergent injury rating, velvetleaf; assay type: in vivo; set-up: key: injury rating scale on which 4 = death; details: 2 lbs/acre
Procedure: as §1, §2, §3, §4, §6

Cotton [9] = experiment: Postemergent injury rating, cotton; assay type: in vivo
Procedure: as §1, §2, §3, §4, §5

Foxtail [10] = experiment: Preemergent injury rating, foxtail; assay type: in vivo, foxtail (millet); set-up: key: injury rating scale on which 4 = death
Procedure: as §1, §2, §3, §4, §6

Corn [11] = experiment: Preemergent injury rating, corn; assay type: in vivo; set-up: key: injury rating scale on which 4 = death
Procedure: as §1, §2, §3, §4, §6

Soybean [12] = experiment: Preemergent injury rating, soybean; assay type: in vivo; set-up: key: injury rating scale on which 4 = death
Procedure: as §1, §2, §3, §4, §6

Corn [13] = experiment: Postemergent injury rating, corn; assay type: in vivo; set-up: key: injury rating scale, 4 = death
Procedure: as §1, §2, §3, §4, §5

Velvet Leaf [14] = experiment: Postemergent injury rating, velvetleaf; assay type: in vivo
Procedure: as §1, §2, §3, §4, §5

Q: Which results are given for `CS(=O)(=O)c1cnc2nc(C(F)(F)F)n(O)c2c1` [6-(methylsulfonyl)-1-hydroxy-2-(trifluoromethyl)-1H-imidazo(4,5-b)pyridine]?
A: Injury Rating, Pigweed (Pigweed [1]; 1 lbs/acre): 3; Injury Rating, Pigweed (Pigweed [1]; 2 lbs/acre): 4; Injury Rating, Crabgrass (Crabgrass [2]; 1 lbs/acre): 2; Injury Rating, Crabgrass (Crabgrass [2]; 2 lbs/acre): 2; Injury Rating, Cotton (Cotton [3]; 2 lbs/acre): 0; Injury Rating, Soybean (Soybean [4]; 1 lbs/acre): 3; Injury Rating, Soybean (Soybean [4]; 2 lbs/acre): 4; Injury Rating, Pigweed (Pigweed [5]): 3; Injury Rating, Foxtail (Foxtail [6]; 1 lbs/acre): 4; Injury Rating, Foxtail (Foxtail [6]; 2 lbs/acre): 4; Injury Rating, Crabgrass (Crabgrass [7]; 2 lbs/acre): 2; Injury Rating, Velvet Leaf (Velvet Leaf [8]): 2; Injury Rating, Cotton (Cotton [9]; 1 lbs/acre): 3; Injury Rating, Cotton (Cotton [9]; 2 lbs/acre): 4; Injury Rating, Foxtail (Foxtail [10]; 2 lbs/acre): 2; Injury Rating, Corn (Corn [11]; 2 lbs/acre): 0; Injury Rating, Soybean (Soybean [12]; 2 lbs/acre): 2; Injury Rating, Corn (Corn [13]; 1 lbs/acre): 1; Injury Rating, Corn (Corn [13]; 2 lbs/acre): 2

Q: With `On1c(C(F)(F)F)nc2ncc(C(F)(F)F)cc21` [1-hydroxy-2,6-bis(trifluoromethyl)-1H-imidazo(4,5-b)pyridine] as the compound, how does the “Injury Rating, Pigweed” value (Pigweed [1]; 1 lbs/acre) read?
A: Its value is 4.

Q: And the “Injury Rating, Pigweed” value (Pigweed [1]; 2 lbs/acre)?
A: Its value is 4.

Q: What about the “Injury Rating, Pigweed” value (Pigweed [1]; 4 lbs/acre) of the same compound?
A: Its value is 4.

Q: And the “Injury Rating, Pigweed” value (Pigweed [1]; 8 lbs/acre)?
A: Its value is 4.

Q: And the “Injury Rating, Crabgrass” value (Crabgrass [2]; 1 lbs/acre)?
A: The value was 4.

Q: And the “Injury Rating, Crabgrass” value (Crabgrass [2]; 2 lbs/acre)?
A: Its value is 4.

Q: What about the “Injury Rating, Crabgrass” value (Crabgrass [2]; 4 lbs/acre) of the same compound?
A: The value was 4.

Q: What about the “Injury Rating, Crabgrass” value (Crabgrass [2]; 8 lbs/acre) of the same compound?
A: The value was 4.

Q: And the “Injury Rating, Cotton” value (Cotton [3]; 8 lbs/acre)?
A: Its value is 4.

Q: What about the “Injury Rating, Soybean” value (Soybean [4]; 1 lbs/acre) of the same compound?
A: Its value is 4.

Q: And the “Injury Rating, Soybean” value (Soybean [4]; 2 lbs/acre)?
A: The value was 4.

Q: What about the “Injury Rating, Soybean” value (Soybean [4]; 4 lbs/acre) of the same compound?
A: Its value is 4.

Q: What about the “Injury Rating, Soybean” value (Soybean [4]; 8 lbs/acre) of the same compound?
A: Its value is 4.

Q: And the “Injury Rating, Foxtail” value (Foxtail [6]; 1 lbs/acre)?
A: Its value is 4.

Q: What about the “Injury Rating, Foxtail” value (Foxtail [6]; 2 lbs/acre) of the same compound?
A: The value was 4.

Q: What about the “Injury Rating, Foxtail” value (Foxtail [6]; 4 lbs/acre) of the same compound?
A: The value was 4.

Q: And the “Injury Rating, Foxtail” value (Foxtail [6]; 8 lbs/acre)?
A: The value was 4.

Q: What about the “Injury Rating, Crabgrass” value (Crabgrass [7]; 8 lbs/acre) of the same compound?
A: Its value is 4.

Q: And the “Injury Rating, Cotton” value (Cotton [9]; 1 lbs/acre)?
A: Its value is 4.

Q: And the “Injury Rating, Cotton” value (Cotton [9]; 2 lbs/acre)?
A: The value was 4.

Q: And the “Injury Rating, Cotton” value (Cotton [9]; 4 lbs/acre)?
A: The value was 4.

Q: And the “Injury Rating, Cotton” value (Cotton [9]; 8 lbs/acre)?
A: The value was 4.

Q: And the “Injury Rating, Velvet Leaf” value (Velvet Leaf [14]; 1 lbs/acre)?
A: Its value is 4.

Q: And the “Injury Rating, Velvet Leaf” value (Velvet Leaf [14]; 2 lbs/acre)?
A: The value was 4.

Q: And the “Injury Rating, Velvet Leaf” value (Velvet Leaf [14]; 4 lbs/acre)?
A: Its value is 4.

Q: What about the “Injury Rating, Velvet Leaf” value (Velvet Leaf [14]; 8 lbs/acre) of the same compound?
A: The value was 4.

Q: What about the “Injury Rating, Foxtail” value (Foxtail [10]; 8 lbs/acre) of the same compound?
A: The value was 4.

Q: And the “Injury Rating, Corn” value (Corn [11]; 8 lbs/acre)?
A: The value was 3.

Q: What about the “Injury Rating, Soybean” value (Soybean [12]; 8 lbs/acre) of the same compound?
A: Its value is 3.

Q: What about the “Injury Rating, Corn” value (Corn [13]; 1 lbs/acre) of the same compound?
A: Its value is 1.

Q: What about the “Injury Rating, Corn” value (Corn [13]; 2 lbs/acre) of the same compound?
A: The value was 4.

Q: What about the “Injury Rating, Corn” value (Corn [13]; 4 lbs/acre) of the same compound?
A: The value was 4.

Q: And the “Injury Rating, Corn” value (Corn [13]; 8 lbs/acre)?
A: The value was 4.
